From patent US9932637B2, “Genetic polymorphisms associated with cardiovascular disorders and drug response, methods of detection and uses thereof” (CELERA CORPORATION, priority 2003, dated 2018)

Test system: patients with prior myocardial infarction (CARE study)
Test: CARE: association of SNPs with pravastatin treatment in cardiovascular events prevention (logistic regression, odds ratio pravastatin vs placebo by genotype; Table 8)
Assay type: in vivo, human
Text: In order to identify genetic markers associated with acute coronary events (e.g. MI, stroke, unstable angina, congestive heart failure, etc.) or response to statin treatment for the prevention of coronary events, samples from the Cholesterol and Recurrent Events (CARE) study (a randomized multicentral double-blinded trial on secondary prevention of acute coronary events with pravastatin) (Sacks et al., 1991, Am. J. Cardiol. 68: 1436-1446) were genotyped. A well-documented myocardial infarction (MI) was one of the enrollment criteria for entry into the CARE study. Patients were enrolled in the CARE trial from 80 participating study centers. […] Patients were randomized to receive either 40 mg of pravastatin once daily or a matching placebo. The primary endpoint of the trial was death from coronary heart disease and the median duration of follow-up was 5.0 years (range, 4.0 to 6.2 years). […] Secondary endpoints of other related cardiovascular or metabolic disease events, and changes in clinical variables were also recorded in pravastatin-treated and placebo groups. All individuals included in the study had signed a written informed consent form and the study protocol was approved by the respective Institutional Review Boards (IRBs).
For genotyping SNPs in CARE patient samples, DNA was extracted from blood samples using conventional DNA extraction methods such as the QIA-amp kit from Qiagen. Genotypes were obtained on an ABI PRISM® 7900HT Sequence Detection PCR system (Applied Biosystems, Foster City, Calif.) by kinetic allele-specific PCR, similar to the method described by Germer et al. (Germer S., Holland M. J., Higuchi R. 2000, Genome Res. 10: 258-266).
Statistical analysis for association of SNPs with pravastatin treatment in cardiovascular events prevention (Table 8) was carried out using an overall logistic regression model that included an intercept, a parameter for the effect of a genotype containing two rare alleles versus a genotype containing no rare alleles, a parameter for the effect of a genotype containing one rare allele versus a genotype containing no rare alleles, a parameter for the effect of use of pravastatin versus the use of placebo, and parameters for the interaction effects between SNP genotypes and pravastatin use. The test of the overall model is a chi-square test with two degrees of freedom for analyses containing all three genotypes, and one degree of freedom for analyses containing two genotypes.
Effect sizes were estimated through odds ratios (pravastatin group versus placebo) for carriers of each genotype (groups of 0, 1, and 2 minor allele carriers). The effect was considered to be significant if p-value for testing whether any of the interactions between SNP genotypes and pravastatin use were <0.05. […] Odds ratios less than one indicate that the specific SNP allele has a protective effect and odds ratios greater than one indicate that the specific SNP allele has an adverse effect.

[1] = CXCL16 hCV8718197, All Patients, Cardiovascular Mortality
[2] = CXCL16 hCV8718197, All Patients, Coronary Artery Bypass or Revascularization
[3] = CXCL16 hCV8718197, All Patients, Fatal Atherosclerotic Cardiovascular Disease
[4] = CXCL16 hCV8718197, All Patients, Fatal CHD/Definite Non-fatal MI
[5] = CXCL16 hCV8718197, All Patients, Fatal/Non-fatal MI (def & prob)
[6] = CXCL16 hCV8718197, All Patients, Hosp. for Cardiovascular Disease
[7] = CXCL16 hCV8718197, All Patients, Total Cardiovascular Disease Events
[8] = CXCL16 hCV8718197, All Patients, Total Coronary Heart Disease
[9] = CYP4F2 hCV16179493, All Patients, 0 Rare Alleles, Prava arm
[10] = CYP4F2 hCV16179493, All Patients, 1 Rare Allele, Prava arm
[11] = CYP4F2 hCV16179493, All Patients, 2 Rare Alleles, Prava arm
[12] = ELN hCV1253630, All Patients, 0 Rare Alleles, Prava, n/total 45/543

CC[C@H](C)C(=O)O[C@H]1C[C@H](O)C=C2C=C[C@H](C)[C@H](CC[C@@H](O)C[C@@H](O)CC(=O)O)[C@H]21 [pravastatin]
Fatal Atherosclerotic Cardiovascular Disease, n/total (%) (CXCL16 hCV8718197, All Patients, 2 Rare Alleles, Prava, n/total 19/292): (6.5%) | Fatal CHD/Definite Non-fatal MI, n/total (%) (CXCL16 hCV8718197, All Patients, 2 Rare Alleles, Prava, n/total 34/292): (11.6%) | Fatal/Non-fatal MI (def & prob), n/total (%) (CXCL16 hCV8718197, All Patients, 2 Rare Alleles, Prava, n/total 36/292): (12.3%) | Coronary Artery Bypass or Revascularization, n/total (%) (CXCL16 hCV8718197, All Patients, 2 Rare Alleles, Prava, n/total 43/292): (14.7%) | Total Coronary Heart Disease Events, n/total (%) (CXCL16 hCV8718197, All Patients, 2 Rare Alleles, Prava, n/total 94/292): (32.2%) | Hosp. for Cardiovascular Disease, n/total (%) (CXCL16 hCV8718197, All Patients, 2 Rare Alleles, Prava, n/total 124/292): (42.5%) | Total Cardiovascular Disease Events, n/total (%) (CXCL16 hCV8718197, All Patients, 2 Rare Alleles, Prava, n/total 130/292): (44.5%) | Prava vs. Placebo Odds Ratio, 0 Rare Alleles [1]: 0.45 | Prava vs. Placebo Odds Ratio, 1 Rare Alleles [1]: 0.80 | Prava vs. Placebo Odds Ratio, 2 Rare Alleles [1]: 2.08 | Prava vs. Placebo Odds Ratio, 0 Rare Alleles [2]: 0.45 | Prava vs. Placebo Odds Ratio, 1 Rare Alleles [2]: 0.93 | Prava vs. Placebo Odds Ratio, 2 Rare Alleles [2]: 0.70 | Prava vs. Placebo Odds Ratio, 0 Rare Alleles [3]: 0.45 | Prava vs. Placebo Odds Ratio, 1 Rare Alleles [3]: 0.76 | Prava vs. Placebo Odds Ratio, 2 Rare Alleles [3]: 2.08 | Prava vs. Placebo Odds Ratio, 0 Rare Alleles [4]: 0.44 | Prava vs. Placebo Odds Ratio, 1 Rare Alleles [4]: 0.82 | Prava vs. Placebo Odds Ratio, 2 Rare Alleles [4]: 1.05 | Prava vs. Placebo Odds Ratio, 0 Rare Alleles [5]: 0.38 | Prava vs. Placebo Odds Ratio, 1 Rare Alleles [5]: 0.80 | Prava vs. Placebo Odds Ratio, 2 Rare Alleles [5]: 0.92 | Prava vs. Placebo Odds Ratio, 0 Rare Alleles [6]: 0.59 | Prava vs. Placebo Odds Ratio, 1 Rare Alleles [6]: 0.89 | Prava vs. Placebo Odds Ratio, 2 Rare Alleles [6]: 0.80 | Prava vs. Placebo Odds Ratio, 0 Rare Alleles [7]: 0.56 | Prava vs. Placebo Odds Ratio, 1 Rare Alleles [7]: 0.90 | Prava vs. Placebo Odds Ratio, 2 Rare Alleles [7]: 0.81 | Prava vs. Placebo Odds Ratio, 0 Rare Alleles [8]: 0.57 | Prava vs. Placebo Odds Ratio, 1 Rare Alleles [8]: 0.92 | Prava vs. Placebo Odds Ratio, 2 Rare Alleles [8]: 0.82 | Cardiovascular Mortality, n/total (%) [9]: (3.3%) | Catheterization, n/total (%) [9]: (10.5%) | Fatal Atherosclerotic Cardiovascular Disease, n/total (%) [9]: (3.2%) | Fatal Coronary Heart Disease, n/total (%) [9]: (2.5%) | Total Mortality, n/total (%) [9]: (4.7%) | Cardiovascular Mortality, n/total (%) [10]: (4.4%) | Catheterization, n/total (%) [10]: (8.6%) | Fatal Atherosclerotic Cardiovascular Disease, n/total (%) [10]: (4.4%) | Fatal Coronary Heart Disease, n/total (%) [10]: (4.2%) | Total Mortality, n/total (%) [10]: (6.6%) | Cardiovascular Mortality, n/total (%) [11]: (2.1%) | Catheterization, n/total (%) [11]: (16.7%) | Fatal Atherosclerotic Cardiovascular Disease, n/total (%) [11]: (2.1%) | Fatal Coronary Heart Disease, n/total (%) [11]: (2.1%) | Total Mortality, n/total (%) [11]: (4.2%) | Non-fatal MI (def & prob), n/total (%) (ELN hCV1253630, All Patients, 0 Rare Alleles, Prava, n/total 42/543): (7.7%) | Fatal CHD/Definite Non-fatal MI, n/total (%) [12]: (8.3%) | Fatal/Non-fatal MI (def & prob), n/total (%) [12]: (8.3%) | Total Coronary Heart Disease Events, n/total (%) (ELN hCV1253630, All Patients, 0 Rare Alleles, Prava, n/total 146/543): (26.9%) | Hosp. for Cardiovascular Disease, n/total (%) (ELN hCV1253630, All Patients, 0 Rare Alleles, Prava, n/total 204/543): (37.6%) | Total Cardiovascular Disease Events, n/total (%) (ELN hCV1253630, All Patients, 0 Rare Alleles, Prava, n/total 212/543): (39.0%) | Non-fatal MI (def & prob), n/total (%) (ELN hCV1253630, All Patients, 1 Rare Allele, Prava, n/total 62/724): (8.6%) | Fatal CHD/Definite Non-fatal MI, n/total (%) (ELN hCV1253630, All Patients, 1 Rare Allele, Prava, n/total 65/724): (9.0%) | Fatal/Non-fatal MI (def & prob), n/total (%) (ELN hCV1253630, All Patients, 1 Rare Allele, Prava, n/total 68/724): (9.4%) | Total Coronary Heart Disease Events, n/total (%) (ELN hCV1253630, All Patients, 1 Rare Allele, Prava, n/total 206/724): (28.5%) | Hosp. for Cardiovascular Disease, n/total (%) (ELN hCV1253630, All Patients, 1 Rare Allele, Prava, n/total 291/724): (40.2%) | Total Cardiovascular Disease Events, n/total (%) (ELN hCV1253630, All Patients, 1 Rare Allele, Prava, n/total 298/724): (41.2%)
